Experimental data published in PubChem BioAssay (NCI).
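Step 1: Grow cells in 96-well plates. Step 2: Expose to compound for 48 hours at 5 concentrations. Step 3: Interpolate endpoints linearly; if unreached, use highest concentration. TGI denotes the concentration required for complete inhibition of growth.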

Experiments:
Test in all cases: inhibition of tumour cell growth, NCI panel, 48 h
[1] = system: 786-0 renal
[2] = system: A498 renal
[3] = system: A549 NSCLC
[4] = system: BT-549 breast
[5] = system: CAKI-1 renal
[6] = system: CCRF-CEM leukemia
[7] = system: COLO 205 colon
[8] = system: DU-145 prostate
[9] = system: HCT-116 colon
[10] = system: HCT-15 colon
[11] = system: HL-60(TB) leukemia
[12] = system: HOP-62 NSCLC
[13] = system: HOP-92 NSCLC
[14] = system: HS 578T breast
[15] = system: HT29 colon
[16] = system: IGROV1 ovarian
[17] = system: K-562 leukemia
[18] = system: KM12 colon
[19] = system: LOX IMVI melanoma
[20] = system: M14 melanoma
[21] = system: MALME-3M melanoma
[22] = system: MCF7 breast
[23] = system: MDA-MB-231 breast
[24] = system: MDA-MB-435
[25] = system: MDA-N
[26] = system: MOLT-4 leukemia
[27] = system: NCI-H226 lung
[28] = system: NCI-H23 lung
[29] = system: NCI-H460 lung
[30] = system: NCI/ADR-RES ovarian
[31] = system: OVCAR-3 ovarian
[32] = system: OVCAR-4 ovarian
[33] = system: OVCAR-8 ovarian
[34] = system: PC-3 prostate
[35] = system: RPMI-8226 leukemia
[36] = system: RXF 393 renal
[37] = system: SF-268 CNS
[38] = system: SF-539 CNS
[39] = system: SK-MEL-2 melanoma
[40] = system: SK-MEL-28 melanoma
[41] = system: SK-MEL-5 melanoma
[42] = system: SK-OV-3 ovarian
[43] = system: SN12C renal
[44] = system: SNB-19 CNS
[45] = system: SNB-75 CNS
[46] = system: SR leukemia
[47] = system: SW-620 colon
[48] = system: T-47D breast
[49] = system: TK-10 renal
[50] = system: U251 CNS
[51] = system: UACC-257 melanoma
[52] = system: UACC-62 melanoma
[53] = system: UO-31 renal
[54] = system: ACHN renal
[55] = system: EKVX NSCLC
[56] = system: HCC-2998 colon
[57] = system: NCI-H522 lung
[58] = system: OVCAR-5 ovarian
[59] = system: SF-295 CNS

## N#Cc1c(N)nc2c(c1-c1ccc(Br)cc1)CSc1ccccc1-2
[1]
  TGI: > 100 µM
[2]
  TGI: > 100 µM
[3]
  TGI: > 100 µM
[4]
  TGI: > 100 µM
[5]
  TGI: 68 µM
[6]
  TGI: 92 µM
[7]
  TGI: 32.2 µM
[8]
  TGI: > 100 µM
[9]
  TGI: > 100 µM
[10]
  TGI: > 100 µM
[11]
  TGI: 98.5 µM
[12]
  TGI: > 100 µM
[13]
  TGI: 50.2 µM
[14]
  TGI: > 100 µM
[15]
  TGI: > 100 µM
[16]
  TGI: > 100 µM
[17]
  TGI: > 100 µM
[18]
  TGI: > 100 µM
[19]
  TGI: > 100 µM
[20]
  TGI: > 100 µM
[21]
  TGI: > 100 µM
[22]
  TGI: > 100 µM
[23]
  TGI: 51.6 µM
[24]
  TGI: 77.3 µM
[25]
  TGI: > 100 µM
[26]
  TGI: > 100 µM
[27]
  TGI: 85.6 µM
[28]
  TGI: > 100 µM
[29]
  TGI: > 100 µM
[30]
  TGI: > 100 µM
[31]
  TGI: > 100 µM
[32]
  TGI: > 100 µM
[33]
  TGI: > 100 µM
[34]
  TGI: 86.5 µM
[35]
  TGI: 61.1 µM
[36]
  TGI: 73.8 µM
[37]
  TGI: > 100 µM
[38]
  TGI: > 100 µM
[39]
  TGI: > 100 µM
[40]
  TGI: > 100 µM
[41]
  TGI: > 100 µM
[42]
  TGI: > 100 µM
[43]
  TGI: > 100 µM
[44]
  TGI: > 100 µM
[45]
  TGI: > 100 µM
[46]
  TGI: > 100 µM
[47]
  TGI: > 100 µM
[48]
  TGI: 58.2 µM
[49]
  TGI: > 100 µM
[50]
  TGI: > 100 µM
[51]
  TGI: 72.5 µM
[52]
  TGI: 78.1 µM
[53]
  TGI: > 100 µM

## O=C1c2ccccc2C(C2c3ccccc3C(=O)c3cc(Br)ccc32)c2ccc(Br)cc21 (stereo not drawn)
[1]
  TGI: > 100 µM
[2]
  TGI: > 100 µM
[3]
  TGI: > 100 µM
[54]
  TGI: > 100 µM
[4]
  TGI: > 100 µM
[5]
  TGI: > 100 µM
[7]
  TGI: > 100 µM
[8]
  TGI: > 100 µM
[55]
  TGI: > 100 µM
[56]
  TGI: > 100 µM
[9]
  TGI: > 100 µM
[10]
  TGI: > 100 µM
[12]
  TGI: > 100 µM
[13]
  TGI: > 100 µM
[14]
  TGI: > 100 µM
[15]
  TGI: > 100 µM
[16]
  TGI: > 100 µM
[17]
  TGI: > 100 µM
[18]
  TGI: > 100 µM
[19]
  TGI: > 100 µM
[20]
  TGI: > 100 µM
[21]
  TGI: > 100 µM
[22]
  TGI: > 100 µM
[23]
  TGI: > 100 µM
[24]
  TGI: > 100 µM
[25]
  TGI: > 100 µM
[26]
  TGI: > 100 µM
[27]
  TGI: > 100 µM
[28]
  TGI: > 100 µM
[57]
  TGI: > 100 µM
[30]
  TGI: > 100 µM
[31]
  TGI: > 100 µM
[32]
  TGI: > 100 µM
[58]
  TGI: > 100 µM
[33]
  TGI: > 100 µM
[34]
  TGI: > 100 µM
[35]
  TGI: > 100 µM
[36]
  TGI: > 100 µM
[37]
  TGI: > 100 µM
[59]
  TGI: > 100 µM
[40]
  TGI: > 100 µM
[41]
  TGI: > 100 µM
[42]
  TGI: > 100 µM
[43]
  TGI: > 100 µM
[44]
  TGI: > 100 µM
[45]
  TGI: > 100 µM
[47]
  TGI: > 100 µM
[48]
  TGI: > 100 µM
[49]
  TGI: > 100 µM
[50]
  TGI: > 100 µM
[51]
  TGI: > 100 µM
[52]
  TGI: > 100 µM
[53]
  TGI: > 100 µM

## CC(=O)C(=[N+]=[N-])C(=O)OCCOC(=O)C(=[N+]=[N-])C(C)=O
[1]
  TGI: > 1 µM
[2]
  TGI: > 1 µM
[3]
  TGI: > 1 µM
[54]
  TGI: > 1 µM
[4]
  TGI: > 1 µM
[6]
  TGI: > 1 µM
[8]
  TGI: > 1 µM
[55]
  TGI: > 1 µM
[56]
  TGI: > 1 µM
[9]
  TGI: > 1 µM
[10]
  TGI: > 1 µM
[11]
  TGI: > 1 µM
[12]
  TGI: > 1 µM
[13]
  TGI: > 1 µM
[14]
  TGI: > 1 µM
[15]
  TGI: > 1 µM
[16]
  TGI: > 1 µM
[17]
  TGI: > 1 µM
[18]
  TGI: > 1 µM
[19]
  TGI: > 1 µM
[20]
  TGI: > 1 µM
[21]
  TGI: > 1 µM
[22]
  TGI: > 1 µM
[23]
  TGI: > 1 µM
[24]
  TGI: > 1 µM
[25]
  TGI: > 1 µM
[26]
  TGI: > 1 µM
[27]
  TGI: > 1 µM
[28]
  TGI: > 1 µM
[29]
  TGI: > 1 µM
[31]
  TGI: > 1 µM
[58]
  TGI: > 1 µM
[33]
  TGI: > 1 µM
[34]
  TGI: > 1 µM
[35]
  TGI: > 1 µM
[36]
  TGI: > 1 µM
[37]
  TGI: > 1 µM
[59]
  TGI: > 1 µM
[38]
  TGI: > 1 µM
[39]
  TGI: > 1 µM
[40]
  TGI: > 1 µM
[41]
  TGI: > 1 µM
[42]
  TGI: > 1 µM
[43]
  TGI: > 1 µM
[44]
  TGI: > 1 µM
[45]
  TGI: > 1 µM
[46]
  TGI: > 1 µM
[48]
  TGI: > 1 µM
[49]
  TGI: > 1 µM
[50]
  TGI: > 1 µM
[51]
  TGI: > 1 µM
[52]
  TGI: > 1 µM
[53]
  TGI: > 1 µM

## CC(/C=N\NC(=S)N(C)C)=N/NC(=S)N(C)C
[1]
  TGI: > 59.8 µM
[2]
  TGI: 20.1 µM
[3]
  TGI: > 100 µM
[4]
  TGI: > 47.7 µM
[5]
  TGI: > 56.2 µM
[7]
  TGI: 33.7 µM
[8]
  TGI: > 100 µM
[55]
  TGI: > 100 µM
[56]
  TGI: 75.9 µM
[9]
  TGI: 31.4 µM
[10]
  TGI: > 54.3 µM
[12]
  TGI: > 51.1 µM
[13]
  TGI: 31.2 µM
[14]
  TGI: 52.8 µM
[15]
  TGI: > 100 µM
[16]
  TGI: 16.9 µM
[17]
  TGI: > 100 µM
[18]
  TGI: > 60.9 µM
[19]
  TGI: > 100 µM
[20]
  TGI: > 54.1 µM
[21]
  TGI: > 34.2 µM
[22]
  TGI: > 100 µM
[23]
  TGI: > 100 µM
[24]
  TGI: > 100 µM
[25]
  TGI: > 100 µM
[26]
  TGI: > 100 µM
[27]
  TGI: 13.9 µM
[28]
  TGI: > 37.7 µM
[29]
  TGI: > 100 µM
[57]
  TGI: 20.6 µM
[31]
  TGI: > 22.8 µM
[32]
  TGI: > 100 µM
[58]
  TGI: > 100 µM
[33]
  TGI: > 100 µM
[34]
  TGI: > 100 µM
[35]
  TGI: > 100 µM
[36]
  TGI: 2.58 µM
[37]
  TGI: > 29.3 µM
[59]
  TGI: > 100 µM
[38]
  TGI: > 100 µM
[39]
  TGI: 70.7 µM
[40]
  TGI: > 100 µM
[41]
  TGI: 14.1 µM
[42]
  TGI: > 51.9 µM
[43]
  TGI: > 100 µM
[44]
  TGI: > 100 µM
[45]
  TGI: > 100 µM
[47]
  TGI: > 100 µM
[48]
  TGI: 2.78 µM
[49]
  TGI: > 100 µM
[50]
  TGI: > 100 µM
[51]
  TGI: > 100 µM
[52]
  TGI: > 100 µM
[53]
  TGI: > 39.2 µM
